Consider one compound from ChEMBL document CHEMBL4138191, “Organic arsenicals target thioredoxin reductase followed by oxidative stress and mitochondrial dysfunction resulting in apoptosis” (Eur J Med Chem, 2018).

For experiment [1], the system named is HL-60. Description: Induction of mitochondrial membrane potential loss in human HL60 cells after 24 hrs by JC-1 staining-based flow cytometry (reference value: 28.6%). The experiment is classed as functional. In general terms: Flow cytometry measures light scatter and fluorescence of single cells or particles in a stream.
Experiment [2] relates to HL-60. Kind of experiment: Induction of mitochondrial membrane potential loss in human HL60 cells after 24 hrs by JC-1 staining-based flow cytometry (reference value: 24.3%). The experiment is classed as functional.

On to `N#CC(C#N)=NNc1cccc(Cl)c1` [CARBONYL CYANIDE M-CHLOROPHENYLHYDRAZONE], for which the Activity in the experiment on HL-60 [1] is 62.4%; with HL-60 [2], 85.8%.
